Converted amounts (≈) assume the structure as drawn. Where two headings read alike, the source gives them in different places.
Tests used:
[1] = tested on: lung cancer cell line (A549); assay: Cytotoxicity (inhibition of cell proliferation), A549 cell line; type: cell-based; details: Homo sapiens
Protocol: (§1) The obtained compounds were tested for potential cytotoxicity. They are not cytotoxic to the non-cancerous, immortalized human keratinocyte (HaCaT) cell line and the lung cancer cell line (A549).

[2] = tested on: non-cancerous, immortalized human keratinocyte (HaCaT) cell line; assay: Cytotoxicity (inhibition of cell proliferation), HaCaT cell line; type: cell-based
Protocol: as §1

S. aureus DNA Gyrase = S. aureus DNA Gyrase (Staphylococcus aureus, UniProt P0A0K8+P20831); assay: Inhibition of bacterial DNA gyrase; type: biochemical; details: dose of inhibitor suppressing 50% activity
Chain of S. aureus DNA Gyrase (P20831 whole entry): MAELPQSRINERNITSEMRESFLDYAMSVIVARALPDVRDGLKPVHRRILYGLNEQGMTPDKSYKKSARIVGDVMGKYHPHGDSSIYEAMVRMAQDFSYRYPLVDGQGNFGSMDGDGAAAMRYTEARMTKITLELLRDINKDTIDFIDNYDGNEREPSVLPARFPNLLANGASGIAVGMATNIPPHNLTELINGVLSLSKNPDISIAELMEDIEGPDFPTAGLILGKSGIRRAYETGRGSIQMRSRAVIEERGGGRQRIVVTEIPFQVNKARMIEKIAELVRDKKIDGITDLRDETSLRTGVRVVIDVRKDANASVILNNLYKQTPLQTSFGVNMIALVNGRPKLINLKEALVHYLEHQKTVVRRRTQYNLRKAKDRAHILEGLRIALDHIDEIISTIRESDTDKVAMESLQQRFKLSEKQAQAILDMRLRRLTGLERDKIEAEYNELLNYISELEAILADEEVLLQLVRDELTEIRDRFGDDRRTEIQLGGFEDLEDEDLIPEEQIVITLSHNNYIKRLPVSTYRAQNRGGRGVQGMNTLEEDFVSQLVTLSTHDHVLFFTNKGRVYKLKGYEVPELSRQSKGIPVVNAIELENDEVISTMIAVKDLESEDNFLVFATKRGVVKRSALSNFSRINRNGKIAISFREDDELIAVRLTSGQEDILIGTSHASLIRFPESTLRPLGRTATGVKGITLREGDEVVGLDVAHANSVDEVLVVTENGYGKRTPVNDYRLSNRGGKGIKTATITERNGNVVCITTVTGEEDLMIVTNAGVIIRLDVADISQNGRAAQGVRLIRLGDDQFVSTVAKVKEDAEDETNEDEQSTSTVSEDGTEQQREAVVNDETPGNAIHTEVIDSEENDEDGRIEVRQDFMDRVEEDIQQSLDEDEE
Chain of S. aureus DNA Gyrase (P0A0K8 whole entry): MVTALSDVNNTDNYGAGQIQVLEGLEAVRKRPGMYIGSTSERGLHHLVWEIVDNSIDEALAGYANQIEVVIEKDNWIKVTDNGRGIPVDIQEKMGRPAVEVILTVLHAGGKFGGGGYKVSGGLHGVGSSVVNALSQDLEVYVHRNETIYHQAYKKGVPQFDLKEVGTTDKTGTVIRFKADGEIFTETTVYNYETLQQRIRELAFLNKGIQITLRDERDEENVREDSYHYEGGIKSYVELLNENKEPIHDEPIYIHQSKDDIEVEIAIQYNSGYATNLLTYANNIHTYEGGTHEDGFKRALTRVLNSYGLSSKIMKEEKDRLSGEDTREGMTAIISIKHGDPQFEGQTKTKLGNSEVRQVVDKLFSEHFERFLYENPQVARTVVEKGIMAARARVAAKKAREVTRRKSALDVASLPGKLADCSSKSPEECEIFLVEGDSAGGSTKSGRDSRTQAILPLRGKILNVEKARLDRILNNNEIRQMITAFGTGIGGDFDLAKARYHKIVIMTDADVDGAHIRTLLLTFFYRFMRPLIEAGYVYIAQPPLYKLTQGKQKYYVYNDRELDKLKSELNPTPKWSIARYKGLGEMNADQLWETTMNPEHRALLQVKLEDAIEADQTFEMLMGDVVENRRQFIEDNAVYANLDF
From the text: (§2) The mechanism of action was verified for the obtained compounds by inhibiting bacterial topoisomerases (Topoisomerase IV and Gyrase).

[3] = molecular target: S. aureus Topoisomerase IV (Staphylococcus aureus, UniProt P0C1S7+P0C1U9); assay: Inhibition of bacterial topoisomerase IV; type: biochemical; details: dose of inhibitor suppressing 50% activity
Chain of S. aureus Topoisomerase IV (P0C1S7 whole entry): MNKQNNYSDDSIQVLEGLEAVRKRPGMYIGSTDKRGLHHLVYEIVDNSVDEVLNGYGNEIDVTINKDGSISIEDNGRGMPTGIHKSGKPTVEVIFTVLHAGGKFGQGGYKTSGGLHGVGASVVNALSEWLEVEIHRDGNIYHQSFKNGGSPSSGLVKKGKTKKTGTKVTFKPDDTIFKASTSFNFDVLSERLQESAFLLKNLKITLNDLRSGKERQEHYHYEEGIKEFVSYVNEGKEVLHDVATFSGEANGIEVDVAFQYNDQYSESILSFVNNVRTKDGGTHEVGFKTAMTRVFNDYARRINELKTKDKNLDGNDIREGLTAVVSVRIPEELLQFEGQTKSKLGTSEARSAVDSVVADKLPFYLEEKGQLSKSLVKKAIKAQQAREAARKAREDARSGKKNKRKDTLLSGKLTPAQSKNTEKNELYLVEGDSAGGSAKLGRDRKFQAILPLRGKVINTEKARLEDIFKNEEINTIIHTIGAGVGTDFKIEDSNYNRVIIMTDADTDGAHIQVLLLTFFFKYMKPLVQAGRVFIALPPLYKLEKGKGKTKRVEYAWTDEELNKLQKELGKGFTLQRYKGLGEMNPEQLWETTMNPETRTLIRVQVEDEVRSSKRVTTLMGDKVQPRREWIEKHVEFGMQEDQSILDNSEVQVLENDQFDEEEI
Chain of S. aureus Topoisomerase IV (P0C1U9 whole entry): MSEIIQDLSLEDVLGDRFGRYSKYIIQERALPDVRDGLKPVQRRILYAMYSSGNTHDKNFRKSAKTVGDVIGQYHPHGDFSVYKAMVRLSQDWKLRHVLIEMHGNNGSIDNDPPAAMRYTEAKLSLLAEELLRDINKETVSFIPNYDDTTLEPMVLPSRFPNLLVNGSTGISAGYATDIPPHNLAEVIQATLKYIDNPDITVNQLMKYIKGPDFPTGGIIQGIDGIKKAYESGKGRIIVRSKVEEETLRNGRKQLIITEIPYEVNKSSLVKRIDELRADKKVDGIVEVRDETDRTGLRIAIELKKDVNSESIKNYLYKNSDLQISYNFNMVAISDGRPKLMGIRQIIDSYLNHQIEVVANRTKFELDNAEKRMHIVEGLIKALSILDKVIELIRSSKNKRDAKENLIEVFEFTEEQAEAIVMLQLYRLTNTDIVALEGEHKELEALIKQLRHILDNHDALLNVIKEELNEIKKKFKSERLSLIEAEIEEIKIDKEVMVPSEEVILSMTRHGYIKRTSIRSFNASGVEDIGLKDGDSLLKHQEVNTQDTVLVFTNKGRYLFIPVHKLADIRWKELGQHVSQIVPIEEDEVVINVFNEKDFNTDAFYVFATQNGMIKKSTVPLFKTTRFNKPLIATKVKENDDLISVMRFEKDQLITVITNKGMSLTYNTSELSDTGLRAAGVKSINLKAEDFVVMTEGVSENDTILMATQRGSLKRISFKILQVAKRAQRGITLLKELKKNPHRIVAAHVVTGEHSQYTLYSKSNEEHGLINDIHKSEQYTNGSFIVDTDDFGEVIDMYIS
From the text: as §2

[4] = concentration at which cell proliferation is inhibited by 50% in relation to the control, read-out: IC50

Row | SMILES | IC50 [1, 4] [µM] | IC50 [2, 4] [µM] | IC50 [1] [µM] | IC50 [2] [µM] | IC50 S. aureus DNA Gyrase (S. aureus DNA Gyrase) [µg/mL] | IC50 [3] [µM] | IC50 (S. aureus DNA Gyrase) [µM]
1 | Fc1ccc(-n2nnnc2Nc2nccs2)cc1Cl [Compound 2, N-(1-(3-chloro-4-fluorophenyl)-1H-tetrazol-5-yl)thiazol-2-amine] | 60 | 60 |  |  |  |  | 
2 | FC(F)(F)c1ccc(-n2nnnc2Nc2nccs2)cc1 [Compound 3, N-(1-(4-(trifluoromethyl)phenyl)-1H-tetrazol-5-yl)thiazole-2-amine] | 76 | 80 |  |  |  |  | 
3 | Brc1ccc(-n2nnnc2Nn2cnnc2)cc1 [Compound 5, 1-(4-bromophenyl)-N-(4H-1,2.4-triazol-4-yl)-1H-tetrazole-5-amine] |  |  | 62 | 65 |  |  | 
4 | Fc1ccc(-n2nnnc2Nn2cnnc2)cc1Cl [Compound 8, 1-(3-chloro-4-fluorophenyl)-N-(4H-1,2.4-triazol-4-yl)-1H-tetrazole-5-amine] |  |  | 60 | 62 |  |  | 
5 | Fc1ccc(-n2nnnc2Nn2cnnc2)cc1 [Compound 9, 1-(4-fluorophenyl)-N-(4H-1,2.4-triazol-4-yl)-1H-tetrazole-5-amine] |  |  | 80 | 84 |  |  | 
6 | Cc1ccc(-n2nnnc2NCc2ccco2)cc1Cl [Compound 10, 1-(3-chloro-4-methylphenyl)-N-(furan-2-ylmethyl)-1H-tetrazole-5-amine] | 78 | 80 |  |  | 22.8 ± 0.4 (≈ 78.7 µM) | 41.1 | 
7 | Clc1ccc(-n2nnnc2NCc2ccco2)cc1Cl [Compound 11, 1-(3,4-dichlorophenyl)-N-(furan-2-ylmethyl)-1H-tetrazole-5-amine] | 80 | 84 |  |  |  | 8.38 | 2.9

— patent publication EP3679037B1, “NEW 5-AMINOTETRAZOLE DERIVATIVES WITH ANTIBACTERIAL AND ANTIFUNGAL ACTIVITY” (Warszawski Uniwersytet Medyczny, priority 2017, dated 2019)
